Measurements reported in ChEMBL document CHEMBL3217450, “Structure based virtual screening for discovery of novel human neutrophil elastase inhibitors” (Medchemcomm, 2012).
pIC50: −log10 of the molar value. Residues, ends and D or L forms follow the SMILES beside them. *: point of attachment. MeOSuc = COC(=O)CCC(=O)*; CH2Cl = ClC*

Columns and labels:
Neutrophil elastase = molecular target: T1, Neutrophil elastase (Homo sapiens, UniProt P08246); test: Inhibition of human neutrophil elastase using N-MeOSuc-Ala-Ala-Pro-Val-p-nitroanilide as substrate incubated for 30 mins prior to substrate addition measured for 60 mins by chromogenic 96 well microplate assay; conditions: for pIC50: read-out: IC50
T1 sequence (P08246 whole entry): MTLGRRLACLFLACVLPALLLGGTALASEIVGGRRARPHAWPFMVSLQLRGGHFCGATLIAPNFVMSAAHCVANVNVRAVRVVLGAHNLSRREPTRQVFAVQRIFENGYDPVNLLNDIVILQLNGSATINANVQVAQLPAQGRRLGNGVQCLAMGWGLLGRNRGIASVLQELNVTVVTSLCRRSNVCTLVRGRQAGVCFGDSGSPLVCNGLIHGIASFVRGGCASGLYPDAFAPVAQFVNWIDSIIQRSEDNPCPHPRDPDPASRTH

[1] = Chemical stability of the compound in phosphate buffer at pH 7.4 assessed as compound remaining at 100 uM after 2 days by HPLC analysis; format: physicochemical; conditions: read-out: Stability
Pancreatic elastase = Pancreatic elastase (Sus scrofa, UniProt P08419+P00772); test: Inhibition of porcine pancreatic elastase using MeO-Suc-Ala-Ala-Pro-Val-AMC as substrate incubated for 30 mins prior to substrate addition measured for 30 mins by incubation method based fluorescence analysis; format: protein assay
Cathepsin G = molecular target: T2, Cathepsin G (Homo sapiens, UniProt P08311); test: Inhibition of cathepsin G in human neutrophil using Suc-Ala-Ala-Pro-Phe-p-nitroanilide as chromogenic substrate incubated for 30 mins prior to substrate addition measured for 30 mins by progress curve method
T2 sequence (P08311 whole entry): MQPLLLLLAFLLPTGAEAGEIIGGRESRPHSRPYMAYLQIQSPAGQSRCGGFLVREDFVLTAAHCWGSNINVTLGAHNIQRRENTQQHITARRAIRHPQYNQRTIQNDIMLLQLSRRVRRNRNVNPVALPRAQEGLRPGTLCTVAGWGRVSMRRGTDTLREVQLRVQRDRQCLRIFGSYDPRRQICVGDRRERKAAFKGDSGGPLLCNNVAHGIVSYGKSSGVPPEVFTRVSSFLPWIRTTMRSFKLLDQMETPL

Myeloblastin = molecular target: T3, Myeloblastin (Homo sapiens, UniProt P24158); test: Inhibition of proteinase 3 in human neutrophil using N-MeOSuc-Ala-Ala-Pro-Val-p-nitroanilide as chromogenic substrate measured for 60 mins by chromogenic assay
T3 sequence (P24158 whole entry): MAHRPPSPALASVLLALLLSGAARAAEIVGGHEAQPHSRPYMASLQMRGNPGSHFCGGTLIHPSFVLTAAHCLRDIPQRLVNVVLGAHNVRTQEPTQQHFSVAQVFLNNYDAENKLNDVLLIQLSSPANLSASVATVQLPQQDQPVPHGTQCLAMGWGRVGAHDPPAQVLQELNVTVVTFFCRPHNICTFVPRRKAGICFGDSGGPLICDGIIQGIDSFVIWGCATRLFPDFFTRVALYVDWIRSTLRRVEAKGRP

[2] = Metabolic stability in human plasma assessed as compound remaining after 2 days by HPLC analysis; format: ADME, cell-free; conditions: read-out: Stability
HEK-293T = test: Cytotoxicity against human HEK293T cells after 24 hrs; format: cell-based
[3] = molecular target: T4, Neutrophil elastase (Homo sapiens) (UniProt P08246); test: Competitive inhibition of human neutrophil elastase assessed as product formation using N-MeOSuc-Ala-Ala-Pro-Val-p-nitroanilide as substrate measured for 120 mins by chromogenic 96 well microplate assay
T4 sequence (whole entry): T1 sequence (P08246 whole entry)

[4] = Metabolic stability in Sprague-Dawley rat pooled liver microsomes assessed as compound remaining after 2 days by HPLC analysis in absence of NADPH generating system; format: ADME; conditions: read-out: Stability
[5] = Metabolic stability in Sprague-Dawley rat pooled liver microsomes assessed as compound remaining after 2 days by HPLC analysis in presence of NADPH generating system; format: ADME; conditions: read-out: Stability
[6] = Cytotoxicity against mouse NIH/3T3 cells after 24 hrs; format: cell-based; conditions: NIH3T3, 24 h
[7] = Chemical stability of the compound in phosphate buffer at pH 7.4 assessed as compound remaining at 50 uM after 2 days by HPLC analysis; format: physicochemical; conditions: read-out: Stability

Structure (SMILES) | IC50 (Neutrophil elastase) | pIC50 (Neutrophil elastase) | further results
CCC(Sc1nc(-c2ccccc2)cc(-c2ccccc2)n1)C(=O)Nc1nnc(C)s1 (stereo unspecified) | ND(Insoluble) |  | 
Nc1nnc(SC(C(=O)Nc2cc(Cl)cc(Cl)c2)c2ccccc2)[nH]1 (stereo unspecified) |  | 4.57 | remaining at 48 h, 100 µM [1]: > 80%; IC50 (Pancreatic elastase): > 139 µM; pIC50 (Cathepsin G): < 3.86; pIC50 (Myeloblastin): < 3.86; remaining at 48 h [2]: > 80%; pIC50 (HEK-293T): < 3.86; inhibition [3]: Dose-dependent effect; remaining at 48 h [4]: > 80%; remaining at 48 h [5]: > 80%; pIC50 [6]: < 3.86
CCC(N)c1nc(C(=O)NC(Cc2ccccc2)C(=O)OCc2ccccc2)co1 (stereo unspecified) |  | < 4.00 | 
Cc1ccc(-n2c(COc3ccc4ccccc4c3)nnc2SCC(=O)O)cc1 |  | < 4.00 | 
O=C(Cc1cn2ccsc2n1)N/N=C/c1cn(-c2ccccc2)nc1-c1cccs1 | ND(Insoluble) |  | 
NC(=O)CSc1nnc2c3c4c(sc3nc(SCc3ccccc3)n12)CCC4 |  | < 4.00 | 
COc1ccc(-n2c(COc3ccc4ccccc4c3)nnc2SCC(N)=O)cc1 |  | < 4.00 | 
Cc1occc1-c1nnc(SCC(=O)NCCc2ccccc2)n1C(C)c1ccccc1 (stereo unspecified) |  | < 4.00 | 
c1ccc(-c2noc(CSc3nnc(Cc4cccs4)n3-c3ccccc3)n2)cc1 | ND(Insoluble) |  | 
COC(=O)CCC(=O)N[C@@H](C)C(=O)N[C@@H](C)C(=O)N1CCC[C@H]1C(=O)N[C@@H](C)C(=O)CCl (MeOSuc-AAPA-CH2Cl) |  | 4.69 | 
O=C(O)CSc1nnc(CSc2nc3ccccc3s2)n1-c1ccccc1 |  | < 4.00 | 
Oc1ccc2c(c1)Oc1ncn3nc(CO/N=C/c4ccccc4)nc3c1C2c1ccccc1 (stereo unspecified) |  | < 4.00 | 
CCOC(=O)C(CSCc1ccccc1)NC(=O)c1coc(-c2ccc(N)cc2)n1 (stereo unspecified) |  | 4.49 | 
O=C(Oc1coc(CSc2nnc(NC(=O)C3CC3)s2)cc1=O)c1cccc(F)c1 |  | 4.74 | IC50 (Pancreatic elastase): > 134 µM; pIC50 (Cathepsin G): < 3.87; remaining at 48 h, 50 µM [7]: > 80%; pIC50 (Myeloblastin): < 3.87; pIC50 (HEK-293T): < 3.87; inhibition [3]: Dose-dependent effect; pIC50 [6]: < 3.87
COc1ccc(-n2c(COc3ccc4ccccc4c3)nnc2SCC(=O)O)cc1 |  | < 4.00 | 
NC(=O)CSc1nnc2c3c4c(sc3nc(SCc3ccccc3)n12)CCCC4 | ND(Insoluble) |  | 
O=C(NCc1ccccc1)c1ccc2nc(-c3ccccn3)c(-c3ccccn3)nc2c1 |  | < 4.00 | 
O=C(CSc1nnc2scc(-c3ccc(Cl)cc3)n12)NCc1cccnc1 |  | < 4.00 | 
COC(=O)C(CSCc1ccccc1)NC(=O)CSc1nc2ccccc2[nH]1 (stereo unspecified) |  | < 4.00 | 
O=C(CSc1nnc(Cc2ccccc2)n1Cc1ccccc1)NCc1ccco1 |  | < 4.00 | 
Cc1sc(NC(=O)CSc2nnc(Cc3ccccc3)n2C)nc1-c1ccccc1 | ND(Insoluble) |  | 
O=C(CSc1nc2ccccc2n1Cc1ccccc1F)NCc1ccc2c(c1)OCO2 | ND(Insoluble) |  | 
COc1ccc(C(=O)CSc2nnc(COc3ccccc3)n2Cc2ccco2)cc1 | ND(Insoluble) |  | 
COc1ccc(C(=O)CSc2nnc(COc3ccccc3)n2Cc2ccccc2)cc1 | ND(Insoluble) |  | 
COc1ccc(CCNC(=O)C(Sc2ccccn2)c2ccccc2)cc1OC (stereo unspecified) |  | < 4.00 | 
C=CCn1c(=O)c2ccccc2n2c(SCC(=O)NCc3cccs3)nnc12 | ND(Insoluble) |  | 
O=C(CSc1nnc(C2CC2)n1Cc1ccccc1)NCc1ccccc1 |  | < 4.00 | 
C=CCn1c(Cc2ccccc2)nnc1SCC(=O)Nc1nc(-c2ccccc2)cs1 | ND(Insoluble) |  | 
Nc1c(C(=O)NCc2cccs2)c2nc3ccccc3nc2n1/N=C/c1ccccn1 |  | 4.75 | 
